Reference: patent US20100286079A1, “COMPOSITION COMPRISING COVALENT CONJUGATES OF CHITOSAN AND AN ACIDIC DRUG AND PARENTERAL ADMINISTRATION” (priority 2007, published 2010)

What was measured:
[1] = Solubility in water / aqueous solution; details: as observed during preparation
[2] = single 200-mg oral dose, fasting subjects; cited from earlier work

SMILES | solubility in aqueous medium [1] | time of peak plasma levels after administration [2]
CC(=O)O.CC(C)Cc1ccc(C(C)C(=O)O)cc1 (centres unmarked) [Ibuprofen ethanoate] | insoluble | –
CC(C)Cc1ccc(C(C)C(=O)O)cc1 (centres unmarked) [Ibuprofen] | – | about 1 hr
